Source: patent publication US11446287B2, “Compounds and methods for EP300 or CBP modulation and indications therefor” (Opna Immuno-Oncology SA, priority 2019, dated 2022)
pIC50: −log10 of the molar value.

target: T1, Recombinant human CBP containing the bromodomain (CBP-BD (1043-1159)) (Homo sapiens, UniProt Q92793); experiment: CBP Alphascreen binding assay; conditions: read-out: CREBBP (CBP) IC50
T1 construct: Recombinant human CBP bromodomain (CBP-BD (1043-1159)); made in house; host or cells: E. coli BL21-CodonPlus (DE3), modified pET vector
Summary of the method: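 Buffer: 50 mM HEPES pH 7.5, 50 mM NaCl, 0.01% BSA, 0.01% Triton X-100, 2 mM DTT. The signal was normalised to plate controls and fitted with a four-parameter curve to give IC50.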

T1 sequence (Q92793 1081-1197): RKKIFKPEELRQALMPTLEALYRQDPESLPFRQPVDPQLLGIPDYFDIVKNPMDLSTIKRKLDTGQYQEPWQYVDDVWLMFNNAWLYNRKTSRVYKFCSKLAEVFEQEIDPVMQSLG

**Q.** `Cc1noc(C)c1-c1cnc2c(C(=O)C3CC3)c(O)n(-c3ccnc(C(=O)O)c3)c2c1` [P-0084, 4-(3-(cyclopropanecarbonyl)-6-(3,5-dimethylisoxazol-4-yl)-2-hydroxy-1H-pyrrolo[3,2-b]pyridin-1-yl)picolinic acid] was tested. Which pIC50 did it give?
**A.** Its pIC50 is 6.00 to 10.00.

**Q.** `Cc1noc(C)c1-c1cnc2c(c1)c(-c1cccc(C(=O)O)c1)cn2C(=O)c1ccccc1` [P-0085, 3-(1-benzoyl-5-(3,5-dimethylisoxazol-4-yl)-1H-pyrrolo[2,3-b]pyridin-3-yl)benzoic acid] was tested. Which pIC50 did it give?
**A.** Its pIC50 is 5.10 to 6.00.

**Q.** With `Cc1noc(C)c1-c1cnc2c(CC3CCC3)cn(-c3c(C(=O)O)ccc(Br)c3F)c2c1` [P-0086, 4-bromo-2-(3-(cyclobutylmethyl)-6-(3,5-dimethylisoxazol-4-yl)-1H-pyrrolo[3,2-b]pyridin-1-yl)-3-fluorobenzoic acid] as the molecule, how does the pIC50 read?
**A.** Its pIC50 is 6.00 to 10.00.

**Q.** With `COc1c(-n2cc(CC3CCC3)c3ncc(-c4c(C)noc4C)cc32)ccc(C(=O)O)c1F` [P-0087, 4-(3-(cyclobutylmethyl)-6-(3,5-dimethylisoxazol-4-yl)-1H-pyrrolo[3,2-b]pyridin-1-yl)-2-fluoro-3-methoxybenzoic acid] as the molecule, how does the pIC50 read?
**A.** Its pIC50 is 6.00 to 10.00.

**Q.** With `Cc1noc(C)c1-c1cnc2c(C(=O)c3cccc(Cl)c3)cn(-c3ccnc(C(=O)O)c3)c2c1` [P-0088, 4-(3-(3-chlorobenzoyl)-6-(3,5-dimethylisoxazol-4-yl)-1H-pyrrolo[3,2-b]pyridin-1-yl)picolinic acid] as the molecule, how does the pIC50 read?
**A.** Its pIC50 is 6.00 to 10.00.

**Q.** `Cc1noc(C)c1-c1cnc2c(C(=O)c3ccccc3Cl)cn(-c3ccnc(C(=O)O)c3)c2c1` [P-0089, 4-(3-(2-chlorobenzoyl)-6-(3,5-dimethylisoxazol-4-yl)-1H-pyrrolo[3,2-b]pyridin-1-yl)picolinic acid] was tested. Which pIC50 did it give?
**A.** Its pIC50 is 6.00 to 10.00.

**Q.** With `Cc1noc(C)c1-c1cnc2c(Cc3cccc(Cl)c3)cn(-c3ccnc(C(=O)O)c3)c2c1` [P-0090, 4-(3-(3-chlorobenzyl)-6-(3,5-dimethylisoxazol-4-yl)-1H-pyrrolo[3,2-b]pyridin-1-yl)picolinic acid] as the molecule, how does the pIC50 read?
**A.** The pIC50 was 6.00 to 10.00.

**Q.** `Cc1noc(C)c1-c1cnc2c(Cc3ccccc3Cl)cn(-c3ccnc(C(=O)O)c3)c2c1` [P-0091, 4-(3-(2-chlorobenzyl)-6-(3,5-dimethylisoxazol-4-yl)-1H-pyrrolo[3,2-b]pyridin-1-yl)picolinic acid] was tested. Which pIC50 did it give?
**A.** Its pIC50 is 6.00 to 10.00.

**Q.** `Cc1noc(C)c1-c1cnc2c(c1)c(-c1cccc(C(=O)NS(C)(=O)=O)c1)cn2Cc1ccccc1` [P-0092, 3-(1-benzyl-5-(3,5-dimethylisoxazol-4-yl)-1H-pyrrolo[2,3-b]pyridin-3-yl)-N-(methylsulfonyl)benzamide] was tested. Which pIC50 did it give?
**A.** The pIC50 was 5.10 to 6.00.

**Q.** `Cc1noc(C)c1-c1cnc2c(c1)c(C1=CCC(C(=O)O)CC1)cn2Cc1ccccc1` (stereo not shown) [P-0093, 4-(1-benzyl-5-(3,5-dimethylisoxazol-4-yl)-1H-pyrrolo[2,3-b]pyridin-3-yl)cyclohex-3-ene-1-carboxylic acid] was tested. Which pIC50 did it give?
**A.** Its pIC50 is 6.00 to 10.00.

**Q.** With `Cc1noc(C)c1-c1cnc2c(c1)c(-c1c(F)cc(C(=O)O)cc1F)cn2C(C)c1ccccn1` (stereo not shown) [P-0094, 4-(5-(3,5-dimethylisoxazol-4-yl)-1-(1-(pyridin-2-yl)ethyl)-1H-pyrrolo[2,3-b]pyridin-3-yl)-3,5-difluorobenzoic acid] as the molecule, how does the pIC50 read?
**A.** The pIC50 was 6.00 to 10.00.

**Q.** `Cc1noc(C)c1-c1cnc2c(c1)c(-c1c(Cl)cc(C(=O)O)cc1Cl)cn2C(C)c1ccccn1` (stereo not shown) [P-0095, 3,5-dichloro-4-(5-(3,5-dimethylisoxazol-4-yl)-1-(1-(pyridin-2-yl)ethyl)-1H-pyrrolo[2,3-b]pyridin-3-yl)benzoic acid] was tested. Which pIC50 did it give?
**A.** The pIC50 was 6.00 to 10.00.

**Q.** `Cc1noc(C)c1-c1cnc2c(c1)c(-c1c(F)ccc(NS(C)(=O)=O)c1F)cn2C(C)c1ccccn1` (stereo not shown) [P-0096, N-(3-(5-(3,5-dimethylisoxazol-4-yl)-1-(1-(pyridin-2-yl)ethyl)-1H-pyrrolo[2,3-b]pyridin-3-yl)-2,4-difluorophenyl)methanesulfonamide] was tested. Which pIC50 did it give?
**A.** Its pIC50 is 5.10 to 6.00.
